Experimental data reported in patent US20100035754A1, “AGENT FOR IMPROVING ALKALI RESISTANCE OF PLANT AND METHOD FOR IMPROVING ALKALI RESISTANCE OF PLANT” (COSMO OIL CO., LTD, priority 2007, published 2010).

Columns and labels:
[1] = test system: plants grown in alkaline soil; details: spraying, Non-Patent Document 1; cited from earlier work
Komatsuna [2] = experiment: Komatsuna pot test: foliage application of agent, then sub-irrigation with pH 9.0 sodium carbonate/sodium hydrogencarbonate buffer, fresh weight of shoots; type: in vivo, Komatsuna (species: Calvita); details: 0.05 wt. % aqueous solution of agent on stems and leaves, 5 mL/pot, pH 9.0 buffer sub-irrigation three days after treatment, measured one week after irrigation
Procedure: Each of the pots (1/5000 a) was filled with andosols soil, and Komatsuna (species: Calvita, product of Nohara Seed Co., Ltd.) was sown in the soil. At the 3 leaf stage, five uniform seedlings per pot were selected by cutting. An aqueous solution (0.05 wt. %) of each agent having a composition shown in Table 1 was applied to the stems and leaves of the plants in each pot (5 mL/pot). Sulfur powder (“sulfur, powder,” product of Wako Pure Chemical Industries, Ltd.) was separately used in an amount given in Table 1 for soil treatment. The same sulfur powder was employed in the following Examples. Three days after the treatment, sub-irrigation was performed with a 0.5-mol/L aqueous sodium carbonate/sodium hydrogencarbonate buffer (pH: 9.0). One week after irrigation, the fresh weight of shoots of the plants was measured so as to check the growth conditions.
In Comparative Example 1, water was employed instead of an aqueous solution of each agent.

Komatsuna [3] = experiment: Komatsuna grown in alkaline soil, foliage spray of agent every 2 weeks, plant height and dry weight of shoots; type: in vivo, Komatsuna (Calvita); details: pH of soil 8.8, foliage spray 5 mL/pot every 2 weeks, 27 days after sowing, averaged
Procedure: Calcium carbonate was added to field soil so as to adjust the Ca content to 5 mass %, and an appropriate amount of aqueous sodium carbonate solution was added thereto, followed by sufficiently mixing, to thereby provide alkaline soil (pH: 8.8). A chemical fertilizer (base fertilizer) was added to the alkaline soil in an amount of 10 kg/10 a (as reduced to N). Each of the pots (1/5000 a) was filled with the above soil, and 10 seeds of Komatsuna (Calvita, product of Nohara Seed Co., Ltd.) were sown in the soil, followed by cultivation in a greenhouse. Ten days after, five uniform seedlings per pot were selected by cutting. After cutting, an aqueous solution (0.05 mass %) of each agent having a composition shown in Table 2 was sprayed every 2 weeks to the stems and leaves of the plants in each pot (5 mL/pot), and the pot was controlled under ordinary conditions. Twenty-seven days after sowing, the soil was washed out with water, whereby the plants were harvested. The plant height of each plant was measured. Subsequently, the plants were dried at 80° C. for 24 hours by a drier, and the dry weight of shoots of each plant was measured.
The test procedure of Example 7 was repeated, except that the amounts of ingredients were changed. […]
The test procedure of Example 7 was repeated, except that the agent was changed. […]

cotton = experiment: Cotton grown in alkaline soil, foliage spray of agent every 2 weeks, plant height and dry weight of shoots; type: in vivo, cotton (species: Dwarf cotton); details: pH of soil 8.8, foliage spray 5 mL/pot every 2 weeks, sown Sep. 22, harvested November 7
Procedure: Calcium carbonate was added to field soil so as to adjust the Ca content to 5 mass %, and an appropriate amount of aqueous sodium carbonate solution was added thereto, followed by sufficiently mixing, to thereby provide alkaline soil (pH: 8.8). A chemical fertilizer (base fertilizer) was added to the alkaline soil in an amount of 10 kg/10 a (as reduced to N). Each of the pots (1/5000 a) was filled with the above soil, and 6 seeds of cotton (species: Dwarf cotton, product of Sakata Seed Co.) were sown in the soil on Sep. 22, followed by cultivation in a greenhouse. Ten days after, three uniform seedlings per pot were selected by cutting. After cutting, an aqueous solution (0.05 mass %) of each agent having a composition shown in Table 4 was sprayed every 2 weeks to the stems and leaves of the plants in each pot (5 mL/pot), and the pot was controlled under ordinary conditions. On the day of November 7, the soil was washed out with water, whereby the plants were harvested, and the plant height of each plant was measured. Subsequently, the plants were dried at 80° C. for 24 hours by a drier, and the dry weight of shoots of each plant was measured.
The test procedure of Example 13 was repeated, except that sulfur was further applied to soil treatment one day after foliage treatment with other agent ingredients.
The test procedure of Example 13 was repeated, except that the agent was changed. […]

corn = experiment: Corn grown in alkaline soil, foliage spray of agent every 2 weeks, plant height and dry weight of shoots; type: in vivo, corn (species: Amai bantam 90); details: pH of soil 8.7, foliage spray 5 mL/pot every 2 weeks, sown November 15, harvested December 26
Procedure: Calcium carbonate was added to field soil so as to adjust the Ca content to 5 mass %, and an appropriate amount of aqueous sodium carbonate solution was added thereto, followed by sufficiently mixing, to thereby provide alkaline soil (pH: 8.7). A chemical fertilizer (base fertilizer) was added to the alkaline soil in an amount of 10 kg/10 a (as reduced to N). Each of the pots (1/5000 a) was filled with the above soil, and 4 seeds of corn (species: Amai bantam 90, product of Tohoku Seed Co., Ltd.) were sown in the soil on November 15, followed by cultivation in a greenhouse. Twelve days after, two uniform seedlings per pot were selected by cutting. After cutting, an aqueous solution (0.05 mass %) of each agent having a composition shown in Table 6 was sprayed every 2 weeks to the stems and leaves of the plants in each pot (5 mL/pot), and the pot was controlled under ordinary conditions. On the day of December 26, the soil was washed out with water, whereby the plants were harvested, and the plant height of each plant was measured. Subsequently, the plants were dried at 80° C. for 24 hours by a drier, and the dry weight of shoots of each plant was measured.
The test procedure of Example 17 was repeated, except that application of sulfur to soil treatment and application of other agent ingredients to foliage treatment were simultaneously performed. […]

sunflower = experiment: Sunflower grown in alkaline soil, foliage spray of agent every 2 weeks, plant height and dry weight of shoots; type: in vivo, sunflower (Pachino-gold); details: pH of soil 8.8, foliage spray 5 mL/pot every 2 weeks, sown June 13, measured August 10
Procedure: Culture soil (sowing mold, product of Takii Seed Co., Ltd.; 440 mg-N/L, 390 mg-P/L, and 410 mg-K/L) and plug soil for turf were mixed at 1:1, and calcium carbonate was added to the soil mixture to a Ca concentration of 5 mass %. An appropriate amount of aqueous sodium carbonate solution was added thereto, followed by sufficiently mixing, to thereby provide alkaline soil (pH: 8.8). Each of the No. 6-pots (surface area: 177 cm^2) was filled with the above-prepared soil, and on the day of June 13, 4 seeds of sunflower (Pachino-gold, product of Takii Seed Co., Ltd.) were sown in the soil, followed by cultivation in a greenhouse. Fourteen days after, two uniform seedlings per pot were selected by cutting. After cutting, an aqueous solution (0.05 mass %) of each agent having a composition shown in Table 7 was sprayed every 2 weeks to the stems and leaves of the plants in each pot (5 mL/pot), and the pot was controlled under ordinary conditions. On the day of August 10, the plant height and the dry weight of shoots of each plant were measured.
The test procedure of Example 19 was repeated, except that application of sulfur to soil treatment and application of other agent ingredients to foliage treatment were simultaneously performed.
The test procedure of Example 19 was repeated, except that the agent was changed.

tomato = experiment: Tomato seedlings transplanted to alkaline soil, foliage spray of agent every 2 weeks, dry weight of shoots; type: in vivo, tomato (Kyoryoku Beijyu); details: pH of soil 8.8, foliage spray 5 mL/pot every 2 weeks, transplanted June 6, harvested July 6
Procedure: Calcium carbonate was added to field soil so as to adjust the Ca content to 5 mass %, and an appropriate amount of aqueous sodium carbonate solution was added thereto, followed by sufficiently mixing, to thereby provide alkaline soil (pH: 8.8). A chemical fertilizer (base fertilizer) was added to the alkaline soil in an amount of 10 kg/10 a (as reduced to N). Each of the pots (1/5000 a) was filled with the above soil, and on the day of June 6, tomato seedlings (Kyoryoku Beijyu, product of Nohara Seed Co., Ltd.) were transplanted to the soil, followed by cultivation in a greenhouse. After transplanting, an aqueous solution (0.05 mass %) of each agent having a composition shown in Table 8 was sprayed every 2 weeks to the stems and leaves of the plants in each pot (5 mL/pot), and the pot was controlled under ordinary conditions. On the day of July 6, the soil was washed out with water, whereby the plants were harvested. Subsequently, the plants were dried at 80° C. for 24 hours by a drier, and the dry weight of shoots of each plant was measured.
The test procedure of Example 21 was repeated, except that application of sulfur to soil treatment and application of other agent ingredients to foliage treatment were simultaneously performed.
The test procedure of Example 21 was repeated, except that the agent was changed.

Komatsuna [4] = experiment: Komatsuna grown in alkaline soil, agent applied to the soil surface every 2 weeks (soil treatment), plant height and dry weight of shoots; type: in vivo, Komatsuna (Calvita); details: pH of soil 8.8, applied to surface of the soil 10 mL/pot every 2 weeks, 27 days after sowing
Procedure: Calcium carbonate was added to field soil so as to adjust the Ca content to 5 mass %, and an appropriate amount of aqueous sodium carbonate solution was added thereto, followed by sufficiently mixing, to thereby provide alkaline soil (pH: 8.8). A chemical fertilizer (base fertilizer) was added to the alkaline soil in an amount of 10 kg/10 a (as reduced to N) Each of the pots (1/5000 a) was filled with the above soil, and 10 seeds of Komatsuna (Calvita, product of Nohara Seed Co., Ltd.) were sown in the soil, followed by cultivation in a greenhouse. Ten days after, five uniform seedlings per pot were selected by cutting. After cutting, an aqueous solution (0.05 mass %) of each agent having a composition shown in Table 9 was applied every 2 weeks to the surface of the soil in each pot (10 mL/pot), and the pot was controlled under ordinary conditions. Twenty-seven days after sowing, the soil was washed out with water, whereby the plants were harvested, and the plant height of each plant was measured. Subsequently, the plants were dried at 80° C. for 24 hours by a drier, and the dry weight of shoots of each plant was measured.
The test procedure of Example 23 was repeated, except that application of sulfur to soil treatment and application of other agent ingredients to foliage treatment were simultaneously performed.
The test procedure of Example 23 was repeated, except that the agent was changed.

NCC(=O)CCC(=O)O [5-aminolevulinic acid]
Foliage yield of plants [1]: prevent decrease in foliage yield

Cl.NCC(=O)CCC(=O)O [compound 2, 5-Aminolevulinic acid hydrochloride]
Fresh weight of shoots (%)(5 plants in total, relative to treatment period) (Komatsuna [2]): 55%

Cl.NCC(=O)CCC(=O)O [compound 5, 5-Aminolevulinic acid hydrochloride]
Dry weight of shoots (Komatsuna [3]): 2.2 g | Plant height (cm) (Komatsuna [3]): 11.3 cm

O=C([O-])CN(CCN(CC(=O)[O-])CC(=O)[O-])CCN(CC(=O)[O-])CC(=O)[O-].[Fe+3].[NH4+].[NH4+] [compound 6, Ammonium diethylenetriaminepentaacetatoferrate]
Dry weight of shoots (Komatsuna [3]): 2.0 g | Plant height (cm) (Komatsuna [3]): 9.8 cm

Cl.NCC(=O)CCC(=O)O [compound 10, 5-Aminolevulinic acid hydrochloride]
Dry weight of shoots (cotton): 0.9 g | Plant height (cm) (cotton): 13.1 cm

Cl.NCC(=O)CCC(=O)O [compound 14, 5-Aminolevulinic acid hydrochloride]
Dry weight of shoots (corn): 0.30 g | Plant height (cm) (corn): 23.2 cm

Cl.NCC(=O)CCC(=O)O [compound 17, 5-Aminolevulinic acid hydrochloride]
Dry weight of shoots (sunflower): 6.8 g | Plant height (cm) (sunflower): 36 cm

Cl.NCC(=O)CCC(=O)O [compound 20, 5-Aminolevulinic acid hydrochloride]
Dry weight of shoots (tomato): 4.5 g

Cl.NCC(=O)CCC(=O)O [compound 23, 5-Aminolevulinic acid hydrochloride]
Dry weight of shoots (Komatsuna [4]): 2.1 g | Plant height (cm) (Komatsuna [4]): 10.3 cm

O=C([O-])CN(CCN(CC(=O)[O-])CC(=O)[O-])CCN(CC(=O)[O-])CC(=O)[O-].[Fe+3].[NH4+].[NH4+] [compound 24, Ammonium diethylenetriaminepentaacetatoferrate]
Dry weight of shoots (Komatsuna [4]): 1.9 g | Plant height (cm) (Komatsuna [4]): 10.1 cm
